Data on 3 compounds can be found in US7964628B2, “Fibrinogen receptor antagonists and their use” (Piramal Life Sciences Limited, priority 2003, dated 2011).

For series [1], the system named is ADP-induced human platelet aggregation. Briefly: Inhibition of platelet aggregation in human PRP (ADP-induced). It counts as cell-based. As to conditions: 0.05 h, 3 min at 37° C., ADP 5-15 μM final concentration. As to the method: Human blood (150 ml) was collected from the ante-cubital vein of normal healthy volunteers (who were not on any medication for the past two weeks), into a siliconized glass bottle containing 25 ml of acid-citrate-dextrose (ACD) solution and 10 units of hirudin. The blood was immediately centrifuged at 200×g for 20 min at room temperature. Platelet-rich plasma (PRP) was separated and the platelet count read using a Beckman Coulter A^cT diff Counter. The tubes were centrifuged again at 2000×g for 10 min at room temperature, to get platelet-free plasma (PFP). The platelet count of PRP was adjusted to 3×10^8 platelets/ml by appropriate dilution with PFP. All in vitro experiments were conducted using PRP with adjusted number of platelets.
Inhibition of Platelet Aggregation in Human PRP (Born, G. V. R.; Cross, M. J., J. Physiol, 1963, 168, 175)
PRP was incubated with different concentrations of the test compound for 3 min at 37° C. Platelet aggregation was then induced by the addition of ADP (5-15 μM final concentration). Percent inhibition of platelet aggregation was then calculated by comparing test aggregation values with control values (Table 1).

One may read the IC50 as the concentration at which inhibition is half-maximal. Higher therefore signals weaker potency in that assay. `CC(C)COC(=O)COc1ccc(C(=O)CN2Cc3cc(C(=N)N)ccc3C2=O)cc1OCC(=O)OCC(C)C` [Example 24, (4-{2-[5-Carbamimidoyl-1-oxo-1,3-dihydro-isoindol-2-yl]-acetyl}-2-isobutoxycarbonylmethoxy-phenoxy)acetic acid isobutyl ester]: the IC50 in series [1] was 0.006 µM.
By melting point is commonly meant the temperature of the solid-liquid transition. For `CCOC(=O)COc1ccc(C(=O)CN2Cc3cc(C(=N)N)ccc3C2=O)cc1` [Example 3, (4-{2-[5-Carbamimidoyl-1-oxo-1,3-dihydro-isoindol-2-yl]-acetyl}-phenoxy)-acetic acid ethyl ester], the melting point lay in the range of 185 to 187 °C. For the same compound, in series [1], 0.093 µM corresponded to half-maximal inhibition (IC50).
Compound `CCOC(=O)COc1ccc(C(=O)CN2Cc3cc(C(=N)N)ccc3C2=O)cc1OCC(=O)OCC` [Example 20, (4-{2-[5-Carbamimidoyl-1-oxo-1,3-dihydro-isoindol-2-yl]-acetyl}-2-ethoxycarbonylmethoxy-phenoxy)-acetic acid ethyl ester] gave a concentration for half-maximal inhibition (IC50) in series [1] of 0.05 µM.
